Experimental findings from US7049311B1, “Pyrrolbenzodiazepines” (Spirogen Limited, priority 1998, dated 2006) are described below.

The test system of one data set is HCC-2998. As to the kind of experiment: NCI in vitro cytotoxicity screen. Type of data set: cell-based. The settings on record: Homo sapiens, HCC 2998, 48 h, read-out: LC50. A digest of the protocol: (§1)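 Steps: seed cells (5000-40,000/well), preincubate 24 h, 37° C; add compound at 10^−4, 10^−5, 10^−6, 10^−7, 10^−8 […]; incubate 48 h, 5% CO2, 100% humidity; stain with SRB, read OD; derive LC50.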

In the next data set the test system is MALME-3M. The data set can be described thus: NCI in vitro cytotoxicity screen. Type of data set: cell-based. Summed up: as §1
The test system of another data set is NCI-H460. As to the kind of experiment: NCI in vitro cytotoxicity screen. Particulars: Homo sapiens; NCI-H460 (Lung), 48 hour exposure, SRB assay; read-out: LC50 (the source's name). The data set is classed as cell-based. Summed up:
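Cytotoxicity is assessed by continuous 48-hour treatment across five tenfold concentrations spanning 10^−8 to 10^−4 […], with SRB protein assay estimating cell growth and viability. Values are reported as LC50.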
(In general: The SRB assay estimates cell density from bound dye.)

A further data set deals with SNB-75. As to the kind of experiment: NCI in vitro cytotoxicity screen. Type of data set: cell-based. The settings on record: Homo sapiens, SNB-75, 48 h, read-out: LC50. Summed up:
as §1

For the next data set, the system named is UACC-62. As to the kind of experiment: NCI in vitro cytotoxicity screen. Type of data set: cell-based. Summed up:
as §1

Data set [1] deals with human tumour cells cultivated in hollow fibres implanted in mice. The data set can be described thus: NCI Hollow Fibre Assay. Type of data set: in vivo. From the text:
The Biological testing Branch of the Developmental Therapeutics Program of the NCI has adopted a preliminary in vivo screening tool for assessing the potential anticancer activity of compounds identified by the large scale in vitro cell screen. For these assays, human tumour cells are cultivated in polyvinylidene (PVDF) hollow fibres, and a sample of each cell line is implanted into each of two physiologic compartments (intraperitoneal and subcutaneaous) in mice. Each test mouse received a total of 6 fibres (3 intraperitoneally and 3 subcutaneously) representing 3 distinct cancer cell lines. These mice are treated with potential antitumour compounds at each of 2 test doses by the intraperitoneal route using a QD×4 treatment schedule. Vehicle controls consist of 6 mice receiving the compound diluent only. The fibre cultures are collected on the day following the last day of treatment. To assess anticancer effects, the viable cell mass is determined for each of the cell lines using a formazyn dye (MTT) conversion assay. From this, the % T/C can be calculated using the average optical density of compound treated samples divided by the average optical; density of the vehicle controls. In addition, the net increase in cell mass can be determined for each sample, as a sample of fibre cultures are assessed for viable cell mass on the day of implantation into mice. Thus, the cytostatic and cytocidal capacities of the test compound can be assessed.
Generally, each compound is tested against a minimum of 12 human cancer cell lines. This represents a total of 4 experiments since each experiment contains 3 cell lines. The data are reported as % T/C for each of the 2 compound doses against each of the cell lines with separate values calculated for the intraperitoneal and subcutaneous samples.
Compounds are selected for further in vivo testing in standard subcutaneous xenograft models on the basis of several hollow fibre assay criteria. These include: (1) a % T/C of 50 or less in 10 of the 48 possible test combinations (12 cell lines×2 sites×2 Compound doses); (2) activity at a distance (intraperitoneal drug/subcutaneous culture) in a minimum of 4 of the 24 possible combinations; and/or (3) a net cell kill of 1 or more of the cell lines in either implant site. To simplify evaluation, a points system has been adopted which allows rapid evaluation of the activity of a given compound. For this, a value of 2 is assigned for each compound dose which results in a 50% or greater reduction in viable cell mass. The intraperitoneal and subcutaneous samples are scored separately so that criteria (1) and (2) can be evaluated. Compounds with a combined IP+SC score of 20, a SC score of 8 or a net cell kill of one or more cell lines are referred for xenograft testing. […] In addition to these criteria, other factors (e.g. unique structure, mechanism of action) may result in referral of a compound for xenograft testing without the compound meeting these criteria.

Another data set deals with calf thymus DNA. As to the kind of experiment: DNA helix melting temperature assay. Type of data set: binding. How it is done: The first assay, which is described in G. B. Jones, et al., Anti-Cancer Drug Des., 1990, 5, 249, which is incorporated herein by reference, determines the effect of the test compound on the helix melting temperature of DNA. This assay is designed to give an indication of the strength and extent of cross-linking of the DNA strands by the test compound (i.e. a measure of the stabilisation of the DNA upon ligand binding).
The melting temperature was determined for a 1:5 molar ratio of [ligand] [DNA], where the calf thymus DNA concentration is […] in aqueous sodium phosphate buffer (10 mM sodium phosphate+1 mM EDTA, pH 7.00±0.01). For calf thymus DNA at pH 7.00±0.01, the melting temperature is 67.83±0.06° C. (mean value from 30 separate determinations).

In a further data set the test system is A2780cisR. As to the kind of experiment: Cytotoxicity in cisplatin-resistant A2780cisR (Example 9). Particulars: for pIC50: Homo sapiens, A2780cisR, 96 h. The data set is classed as cell-based, human. How it is done:
Relative to the parental line, the A2780cisR subline is known to have elevated GSH levels, an increased level of repair of DNA-cisplatin adducts, and a decreased ability to uptake cisplatin (M. Smellie, et al., Br. J. Cancer, 1994, 70, 48).
The results, which were obtained by incubating the cells with the compounds for 96 hours at 37° C., and assessing the cell number using Sulforhodamine B, are presented in the table below: […]

pIC50: −log10 of the molar value. Like-named read-outs stand apart in the source and are kept apart here.

For `C=C1C[C@H]2C=Nc3cc(OCCCOc4cc5c(cc4OC)C(=O)N4CC(=C)C[C@H]4C=N5)c(OC)cc3C(=O)N2C1` [UP2001 (80)], the CC50 in the data set on HCC-2998 was 99 nM; in the data set with MALME-3M (Homo sapiens, Malme-3M, 48 h, read-out: LC50, MALME-3M (Melanoma), 48 hour exposure, SRB assay) it was 80 nM; in the data set on MALME-3M (read-out: LC50, MALME-3M (Melanoma), 48 hour exposure, SRB assay), 73 nM; in the data set on NCI-H460 it was 2700 nM; in the data set on SNB-75 it was 7500 nM; in the data set on UACC-62 (Homo sapiens, UACC-62, 48 h, read-out: LC50, UACC-62 (Melanoma), 48 hour exposure, SRB assay) it was 70 nM. Moreover, the CC50 in the data set with UACC-62 (read-out: LC50, UACC-62 (Melanoma), 48 hour exposure, SRB assay) stood at 77 nM. Besides, the Total score in data set [1] (combined IP+SC score) is listed as 54. The IP score in data set [1] (intraperitoneal fibres, 2 points per dose giving 50% or greater reduction in viable cell mass) is listed as 40. Also, the SC score in data set [1] (subcutaneous fibres, 2 points per dose giving 50% or greater reduction in viable cell mass) was determined as 14. Moreover, in the data set with calf thymus DNA ([PBD]:[DNA] ratio of 1:5, calf thymus DNA, pH 7.00, 0 h), the “Induced ΔTa after incubation at 37° C. for 0 h” value worked out at 25.7 °C. Moreover, in the data set with calf thymus DNA ([PBD]:[DNA] ratio of 1:5, calf thymus DNA, pH 7.00, 4 h), the “Induced ΔTa after incubation at 37° C. for 4 h” value was 31.9 °C. Further, in the data set on calf thymus DNA ([PBD]:[DNA] ratio of 1:5, calf thymus DNA, pH 7.00, 18 h), the “Induced ΔTa after incubation at 37° C. for 18 h” value is 33.6 °C. Moreover, in the data set with calf thymus DNA (calf thymus DNA melting), the “share of stabilising effect provided without prior incubation” value was 60-80%. For the same compound, the “fold more effective than DSB-120 (comparative ΔTm curves)” value with calf thymus DNA (on a concentration basis) is recorded as at least 10 fold. In addition, the “fold more potent than DSB-120” value with A2780cisR (A2780cisR cell line) was ~9,000 fold. In addition, the pIC50 in the data set on A2780cisR (read-out: IC50 A2780cisR) and in the data set on A2780cisR (read-out: IC50 A2780cis^a) was 10.62 in each case.

The pIC50 is the negative decadic logarithm of the IC50, by convention in mol/L.
